Tested on: 138582-337-R-J1-PDC complex spheroid viability
Test: Anticancer human tumor 138582-337-R-J1-PDC patient-derived Merkel cell tumor cell line growth inhibition
Details: for IC50: curve of first compound; for viability, T/C: stronger effect = lower value
Procedure, shortened: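 Multicellular complex spheroids of tumor cells with human endothelial cells (HUVEC) and mesenchymal stem cells; the LSD1 inhibitor iadademstat was combined with standard-of-care or investigational agents. Top concentration at or near clinical Cmax, half-log dilutions; final DMSO ≤0.25%.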

[1] = second compound 0.1 µM, first compound 0.0316 µM
[2] = second compound 0.1 µM, first compound 0.1 µM
[3] = second compound 0.1 µM, first compound 0.316 µM
[4] = second compound 0.1 µM, first compound 1 µM
[5] = second compound 0.316 µM, first compound 0.0316 µM
[6] = second compound 0.316 µM, first compound 0.1 µM
[7] = second compound 0.316 µM, first compound 0.316 µM
[8] = second compound 0.316 µM, first compound 1 µM
[9] = second compound 1 µM, first compound 0.0316 µM
[10] = second compound 1 µM, first compound 0.1 µM
[11] = second compound 1 µM, first compound 0.316 µM
[12] = second compound 1 µM, first compound 1 µM
[13] = second compound 3.16 µM, first compound 0.0316 µM
[14] = second compound 3.16 µM, first compound 0.1 µM
[15] = second compound 3.16 µM, first compound 0.316 µM
[16] = second compound 3.16 µM, first compound 1 µM
[17] = second compound 10 µM, first compound 0.0316 µM
[18] = second compound 10 µM, first compound 0.1 µM
[19] = second compound 10 µM, first compound 0.316 µM
[20] = second compound 10 µM, first compound 1 µM
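Note: spheroids exposed to agents for 7 days.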
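Throughout, for viability, T/C: 100% = DMSO vehicle control viability.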

## COc1ccc([C@@H](O)c2cc(-c3ncnc4cc(N5CCOCC5)ccc34)c(F)cc2Cl)nn1 + NC1CC1c1ccc(-c2cccc(O)c2)cc1
Second compound 0.1 µM
  IC50: 620 nM
Second compound 0.316 µM
  IC50: 2690 nM
Second compound 1 µM
  IC50: 1980 nM
Second compound 3.16 µM
  IC50: 2200 nM
Second compound 10 µM
  IC50: 2490 nM
[1]
  viability, T/C: 73.2%
[2]
  viability, T/C: 60.4%
[3]
  viability, T/C: 57%
[4]
  viability, T/C: 45.5%
Second compound 0.1 µM, first compound 3.16 µM
  viability, T/C: 38.2%
Second compound 0.1 µM, first compound 10 µM
  viability, T/C: 24.6%
[5]
  viability, T/C: 67%
[6]
  viability, T/C: 72.2%
[7]
  viability, T/C: 66.1%
[8]
  viability, T/C: 58.3%
Second compound 0.316 µM, first compound 3.16 µM
  viability, T/C: 49.2%
Second compound 0.316 µM, first compound 10 µM
  viability, T/C: 28.5%
[9]
  viability, T/C: 77.2%
[10]
  viability, T/C: 73.5%
[11]
  viability, T/C: 61%
[12]
  viability, T/C: 61.6%
Second compound 1 µM, first compound 3.16 µM
  viability, T/C: 44.7%
Second compound 1 µM, first compound 10 µM
  viability, T/C: 25.1%
[13]
  viability, T/C: 68.3%
[14]
  viability, T/C: 79.5%
[15]
  viability, T/C: 65.4%
[16]
  viability, T/C: 58.8%
Second compound 3.16 µM, first compound 3.16 µM
  viability, T/C: 46.4%
Second compound 3.16 µM, first compound 10 µM
  viability, T/C: 26%
[17]
  viability, T/C: 99.8%
[18]
  viability, T/C: 90.6%
[19]
  viability, T/C: 77%
[20]
  viability, T/C: 63.9%
Second compound 10 µM, first compound 3.16 µM
  viability, T/C: 48.1%
Second compound 10 µM, first compound 10 µM
  viability, T/C: 25.3%

## Nc1ncn(C2CC(O)C(CO)S2)c(=O)n1 (stereo not given) + NC1CC1c1ccc(-c2cccc(O)c2)cc1
Second compound 0.1 µM
  IC50: > 300 nM
Second compound 0.316 µM
  IC50: > 300 nM
Second compound 1 µM
  IC50: > 300 nM
Second compound 3.16 µM
  IC50: > 300 nM
Second compound 10 µM
  IC50: > 300 nM
Second compound 0.1 µM, first compound 0.000949 µM
  viability, T/C: 79.6%
Second compound 0.1 µM, first compound 0.003 µM
  viability, T/C: 83.8%
Second compound 0.1 µM, first compound 0.00949 µM
  viability, T/C: 69.2%
Second compound 0.1 µM, first compound 0.03 µM
  viability, T/C: 73%
Second compound 0.1 µM, first compound 0.0949 µM
  viability, T/C: 77.1%
Second compound 0.1 µM, first compound 0.3 µM
  viability, T/C: 69.3%
Second compound 0.316 µM, first compound 0.000949 µM
  viability, T/C: 68.5%
Second compound 0.316 µM, first compound 0.003 µM
  viability, T/C: 80.1%
Second compound 0.316 µM, first compound 0.00949 µM
  viability, T/C: 77.9%
Second compound 0.316 µM, first compound 0.03 µM
  viability, T/C: 76.6%
Second compound 0.316 µM, first compound 0.0949 µM
  viability, T/C: 79.1%
Second compound 0.316 µM, first compound 0.3 µM
  viability, T/C: 78.3%
Second compound 1 µM, first compound 0.000949 µM
  viability, T/C: 71.8%
Second compound 1 µM, first compound 0.003 µM
  viability, T/C: 70.8%
Second compound 1 µM, first compound 0.00949 µM
  viability, T/C: 70.8%
Second compound 1 µM, first compound 0.03 µM
  viability, T/C: 68%
Second compound 1 µM, first compound 0.0949 µM
  viability, T/C: 76.6%
Second compound 1 µM, first compound 0.3 µM
  viability, T/C: 87.5%
Second compound 3.16 µM, first compound 0.000949 µM
  viability, T/C: 84.5%
Second compound 3.16 µM, first compound 0.003 µM
  viability, T/C: 78.9%
Second compound 3.16 µM, first compound 0.00949 µM
  viability, T/C: 84.9%
Second compound 3.16 µM, first compound 0.03 µM
  viability, T/C: 71.8%
Second compound 3.16 µM, first compound 0.0949 µM
  viability, T/C: 77.8%
Second compound 3.16 µM, first compound 0.3 µM
  viability, T/C: 68.9%
Second compound 10 µM, first compound 0.000949 µM
  viability, T/C: 74.3%
Second compound 10 µM, first compound 0.003 µM
  viability, T/C: 82%
Second compound 10 µM, first compound 0.00949 µM
  viability, T/C: 88.5%
Second compound 10 µM, first compound 0.03 µM
  viability, T/C: 89.7%
Second compound 10 µM, first compound 0.0949 µM
  viability, T/C: 93.4%
Second compound 10 µM, first compound 0.3 µM
  viability, T/C: 89.9%

## O=C(C=Cn1cnc(-c2cc(C(F)(F)F)cc(C(F)(F)F)c2)n1)NNc1cnccn1 + NC1CC1c1ccc(-c2cccc(O)c2)cc1
Second compound 0.1 µM
  IC50: 11.5 nM
Second compound 0.316 µM
  IC50: 10.4 nM
Second compound 1 µM
  IC50: 5.94 nM
Second compound 3.16 µM
  IC50: 5.94 nM
Second compound 10 µM
  IC50: 15.8 nM
Second compound 0.1 µM, first compound 0.00316 µM
  viability, T/C: 60.7%
Second compound 0.1 µM, first compound 0.01 µM
  viability, T/C: 53%
[1]
  viability, T/C: 27.8%
[2]
  viability, T/C: 17.4%
[3]
  viability, T/C: 16.3%
[4]
  viability, T/C: 15.7%
Second compound 0.316 µM, first compound 0.00316 µM
  viability, T/C: 56.7%
Second compound 0.316 µM, first compound 0.01 µM
  viability, T/C: 50.4%
[5]
  viability, T/C: 28.1%
[6]
  viability, T/C: 16.2%
[7]
  viability, T/C: 17.3%
[8]
  viability, T/C: 21%
Second compound 1 µM, first compound 0.00316 µM
  viability, T/C: 55.2%
Second compound 1 µM, first compound 0.01 µM
  viability, T/C: 44.8%
[9]
  viability, T/C: 33.8%
[10]
  viability, T/C: 21.1%
[11]
  viability, T/C: 18.6%
[12]
  viability, T/C: 23.8%
Second compound 3.16 µM, first compound 0.00316 µM
  viability, T/C: 55.2%
Second compound 3.16 µM, first compound 0.01 µM
  viability, T/C: 46%
[13]
  viability, T/C: 29.3%
[14]
  viability, T/C: 22.1%
[15]
  viability, T/C: 22.6%
[16]
  viability, T/C: 17.3%
Second compound 10 µM, first compound 0.00316 µM
  viability, T/C: 55.4%
Second compound 10 µM, first compound 0.01 µM
  viability, T/C: 53.1%
[17]
  viability, T/C: 44.6%
[18]
  viability, T/C: 35.1%
[19]
  viability, T/C: 24.9%
[20]
  viability, T/C: 32.2%

— PubChem BioAssay AID1918931 (Molecular Pharmacology Branch, DTP, NCI, 2023)
